Patent US12660819B2, “Herbicidal derivatives” (SYNGENTA CROP PROTECTION AG, priority 2020, dated 2026)

Experiments:
Format in all cases: in vivo
[1] = tested on: Echinochloa crus-galli (ECHCG); experiment: Pre-emergence Test (glasshouse, percentage damage to the plant); settings: 1000 g/ha unless otherwise stated; for percentage damage to the plant, ECHCG: five-point scale; for percentage damage to the plant, ECHCG (five-point scale): Echinochloa crus-galli
[2] = tested on: Zea mays (ZEAMX); experiment: as above; settings: 1000 g/ha unless otherwise stated; for percentage damage to the plant, ZEAMX: five-point scale; for percentage damage to the plant, ZEAMX (five-point scale): Zea mays
[3] = tested on: Ipomoea hederacea (IPOHE); experiment: as above; settings: 1000 g/ha unless otherwise stated; for percentage damage to the plant, IPOHE: five-point scale; for percentage damage to the plant, IPOHE (five-point scale): Ipomoea hederacea
[4] = tested on: Setaria faberi (SETFA); experiment: as above; settings: 1000 g/ha unless otherwise stated; for percentage damage to the plant, SETFA: five-point scale; for percentage damage to the plant, SETFA (five-point scale): Setaria faberi
[5] = tested on: Zea mays (ZEAMX); experiment: Post-emergence Test (glasshouse, percentage damage to the plant); settings: 1000 g/ha unless otherwise stated, evaluated after 13 days; for Post-emergence Test ZEAMX, percentage damage to the plant (five-point scale): post-emergence spray; for ZEAMX, percentage damage caused to the plant (five-point scale): post-emergence
Outline: (§1)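 Seeds sown in standard soil in a glasshouse (24/16 °C day/night, 14 h light, 65% humidity), then sprayed with an aqueous solution of the compound formulated in acetone/water 50:50 with 0.5% Tween 20 at 1000 g/ha unless otherwise stated. Percentage damage was scored after 13 days on a five-point scale (5=81-100%; 1=0-20%).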

[6] = tested on: Amaranthus retoflexus (AMARE); experiment: as above; settings: 1000 g/ha unless otherwise stated, evaluated after 13 days; for Post-emergence Test AMARE, percentage damage to the plant (five-point scale): post-emergence spray; for AMARE, percentage damage caused to the plant (five-point scale): post-emergence
Outline: (§2)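 After sowing in standard soil, pots were kept at 24/16 °C (day/night), 14 h light and 65% humidity. They were sprayed at 1000 g/ha unless otherwise stated, watered twice daily, and assessed for percentage damage at 13 days on a 1–5 scale.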

[7] = tested on: Setaria faberi (SETFA); experiment: as above; settings: 1000 g/ha unless otherwise stated, evaluated after 13 days; for Post-emergence Test SETFA, percentage damage to the plant (five-point scale): post-emergence spray; for SETFA, percentage damage caused to the plant (five-point scale): post-emergence
Outline: as §1

[8] = tested on: Abutilon theophrasti (ABUTH); experiment: as above; settings: 1000 g/ha unless otherwise stated, evaluated after 13 days; for Post-emergence Test ABUTH, percentage damage to the plant (five-point scale): post-emergence spray; for ABUTH, percentage damage caused to the plant (five-point scale): post-emergence
Outline: as §2

[9] = tested on: Ipomoea hederacea (IPOHE); experiment: as above; settings: 1000 g/ha unless otherwise stated, evaluated after 13 days; for Post-emergence Test IPOHE, percentage damage to the plant (five-point scale): post-emergence spray; for IPOHE, percentage damage caused to the plant (five-point scale): post-emergence
Outline: as §1

[10] = tested on: Abutilon theophrasti (ABUTH); experiment: Pre-emergence Test (glasshouse, percentage damage to the plant); settings: 1000 g/ha unless otherwise stated; for percentage damage to the plant, ABUTH: five-point scale; for percentage damage to the plant, ABUTH (five-point scale): Abutilon theophrasti
[11] = tested on: Amaranthus retoflexus (AMARE); experiment: as above; settings: 1000 g/ha unless otherwise stated; for percentage damage to the plant, AMARE: five-point scale; for percentage damage to the plant, AMARE (five-point scale): Amaranthus retoflexus
[12] = tested on: Echinochloa crus-galli (ECHCG); experiment: Post-emergence Test (glasshouse, percentage damage to the plant); settings: 1000 g/ha unless otherwise stated, evaluated after 13 days; for Post-emergence Test ECHCG, percentage damage to the plant (five-point scale): post-emergence spray
Outline: as §2

| Structure (SMILES) | percentage damage to the plant, ECHCG [1] | percentage damage to the plant, ZEAMX [2] | percentage damage to the plant, IPOHE [3] | percentage damage to the plant, SETFA [4] | Post-emergence Test ZEAMX, percentage damage to the plant (five-point scale) [5] | Post-emergence Test AMARE, percentage damage to the plant (five-point scale) [6] | Post-emergence Test SETFA, percentage damage to the plant (five-point scale) [7] | Post-emergence Test IPOHE, percentage damage to the plant (five-point scale) [9] | percentage damage to the plant, ABUTH [10] | percentage damage to the plant, AMARE [11] | percentage damage to the plant, ECHCG (five-point scale) [1] | percentage damage to the plant, ZEAMX (five-point scale) [2] | percentage damage to the plant, IPOHE (five-point scale) [3] | percentage damage to the plant, SETFA (five-point scale) [4] | ZEAMX, percentage damage caused to the plant (five-point scale) [5] | AMARE, percentage damage caused to the plant (five-point scale) [6] | SETFA, percentage damage caused to the plant (five-point scale) [7] | IPOHE, percentage damage caused to the plant (five-point scale) [9] | percentage damage to the plant, AMARE (five-point scale) [11] | Post-emergence Test ECHCG, percentage damage to the plant (five-point scale) [12] | also measured |
| --- | --- | --- | --- | --- | --- | --- | --- | --- | --- | --- | --- | --- | --- | --- | --- | --- | --- | --- | --- | --- | --- |
| CCn1c(C)c(-c2ccc(F)cc2F)c(=O)c(C(=O)O)c1-c1ccc(Cl)cc1 [Compound 192, 2-(4-chlorophenyl)-5-(2,4-difluorophenyl)-1-ethyl-6-methyl-4-oxo-pyridine-3-carboxylic acid] | 2 (2=21-40%) | 0 | 1 (1=0-20%) | 2 (2=21-40%) | 2 (2=21-40%) | 2 (2=21-40%) | 4 (4=61-80%) | 2 (2=21-40%) | 2 (2=21-40%) | 1 (1=0-20%) | – | – | – | – | – | – | – | – | – | – | Post-emergence Test ABUTH, percentage damage to the plant (five-point scale) [8]: 4 (4=61-80%) |
| CCn1c(C)c(-c2ccc(Cl)c(F)c2)c(=O)c(C(=O)O)c1-c1ccc(Cl)cc1 [Compound 201, 5-(4-chloro-3-fluoro-phenyl)-2-(4-chlorophenyl)-1-ethyl-6-methyl-4-oxo-pyridine-3-carboxylic acid] | – | – | – | – | – | – | – | – | – | – | 3 (3=41-60%) | 0 | 0 | 3 (3=41-60%) | 2 (2=21-40%) | 2 (2=21-40%) | 3 (3=41-60%) | 1 (1=0-20%) | 1 (1=0-20%) | – | ABUTH, percentage damage caused to the plant (five-point scale) [8]: 4 (4=61-80%); percentage damage to the plant, ABUTH (five-point scale) [10]: 2 (2=21-40%) |
| CCn1c(C)c(-c2ccc(F)cc2OC)c(=O)c(C(=O)OC)c1-c1ccc(Cl)c(Cl)c1 [Compound 164, methyl 2-(3,4-dichlorophenyl)-1-ethyl-5-(4-fluoro-2-methoxy-phenyl)-6-methyl-4-oxo-pyridine-3-carboxylate] | 0 | 0 | 0 | 0 | 1 (1=0-20%) | 1 (1=0-20%) | 1 (1=0-20%) | 1 (1=0-20%) | – | 0 | – | – | – | – | – | – | – | – | – | 0 | Post-emergence Test ABUTH, percentage damage to the plant (five-point scale) [8]: 1 (1=0-20%) |
| CCn1c(-c2ccc(Cl)c(Cl)c2)c(C(=O)O)c(=O)c(-c2ccc(Cl)cc2)c1C(F)F [Compound 204, 5-(4-chlorophenyl)-2-(3,4-dichlorophenyl)-6-(difluoromethyl)-1-ethyl-4-oxo-pyridine-3-carboxylic acid] | – | – | – | – | – | – | – | – | – | – | 0 | 0 | 0 | 0 | 1 (1=0-20%) | 5 (5=81-100%) | 3 (3=41-60%) | 2 (2=21-40%) | 5 (5=81-100%) | – | ABUTH, percentage damage caused to the plant (five-point scale) [8]: 5 (5=81-100%); percentage damage to the plant, ABUTH (five-point scale) [10]: 2 (2=21-40%) |
| CCn1c(C)c(-c2cccc(OC)c2F)c(=O)c(C(=O)O)c1-c1ccc(Cl)cc1 [Compound 179, 2-(4-chlorophenyl)-1-ethyl-5-(2-fluoro-3-methoxy-phenyl)-6-methyl-4-oxo-pyridine-3-carboxylic acid] | 1 (1=0-20%) | 0 | 3 (3=41-60%) | 1 (1=0-20%) | 1 (1=0-20%) | 2 (2=21-40%) | 3 (3=41-60%) | 3 (3=41-60%) | 3 (3=41-60%) | 1 (1=0-20%) | – | – | – | – | – | – | – | – | – | 2 (2=21-40%) | – |
| CCn1c(C)c(-c2cccc(C(F)(F)F)n2)c(=O)c(C(=O)O)c1-c1ccc(Cl)c(Cl)c1 [Compound 217, 2-(3,4-dichlorophenyl)-1-ethyl-6-methyl-4-oxo-5-[6-(trifluoromethyl)-2-pyridyl]pyridine-3-carboxylic acid] | – | – | – | – | – | – | – | – | – | – | 1 (1=0-20%) | 1 (1=0-20%) | 3 (3=41-60%) | 2 (2=21-40%) | 0 | 0 | 2 (2=21-40%) | 3 (3=41-60%) | 0 | – | ECHCG, percentage damage caused to the plant (five-point scale) ([12]; post-emergence): 1 (1=0-20%); percentage damage to the plant, ABUTH (five-point scale) [10]: 3 (3=41-60%) |
| CCn1c(C)c(-c2ccc(F)c(C#N)c2)c(=O)c(C(=O)O)c1-c1ccc(Cl)cc1 [Compound 174, 2-(4-chlorophenyl)-5-(3-cyano-4-fluoro-phenyl)-1-ethyl-6-methyl-4-oxo-pyridine-3-carboxylic acid] | 3 (3=41-60%) | 1 (1=0-20%) | 1 (1=0-20%) | 2 (2=21-40%) | 1 (1=0-20%) | 2 (2=21-40%) | 3 (3=41-60%) | 4 (4=61-80%) | 1 (1=0-20%) | 1 (1=0-20%) | – | – | – | – | – | – | – | – | – | 2 (2=21-40%) | – |
| CCn1c(C)c(-c2cc(Cl)c(F)c(Cl)c2)c(=O)c(C(=O)O)c1-c1ccc(Cl)cc1 [Compound 178, 2-(4-chlorophenyl)-5-(3,5-dichloro-4-fluoro-phenyl)-1-ethyl-6-methyl-4-oxo-pyridine-3-carboxylic acid] | 0 | 0 | 0 | 0 | 1 (1=0-20%) | 1 (1=0-20%) | 0 | 1 (1=0-20%) | 0 | 0 | – | – | – | – | – | – | – | – | – | 1 (1=0-20%) | – |
| CCn1c(CCOC)c(-c2ccc(Cl)cc2)c(=O)c(C(=O)O)c1-c1ccc(Cl)c(Cl)c1 [Compound 203, 5-(4-chlorophenyl)-2-(3,4-dichlorophenyl)-1-ethyl-6-(2-methoxyethyl)-4-oxo-pyridine-3-carboxylic acid] | – | – | – | – | – | – | – | – | – | – | 1 (1=0-20%) | 0 | 0 | 0 | 1 (1=0-20%) | 0 | 0 | 0 | 0 | – | ABUTH, percentage damage caused to the plant (five-point scale) [8]: 0 |
